Measurements taken from PMC10716780, “The multistep oxidation of cholesterol to pregnenolone by human cytochrome P450 11A1 is highly processive” (The Journal of Biological Chemistry, 2023).
“Also recorded” adds a separate entry of the source. Where two headings read alike, the source gives them in different places. One block for each compound: values may come before it.

Assays:
[1] = molecular target: T1, human P450 11A1 (Homo sapiens, UniProt P05108); test: Steady-state spectral (type I) binding titration, Kd determination; conditions: up to 1 mM
T1 construct: M A S T R S P R P F N E I P S P G D N; Met-Ala (N-terminal start residues in place of the transit peptide and Ile40) (N); made in house; host or cells: E. coli C41(DE3) with GroES/GroEL, vector pET23C(+)
T1 sequence (P05108 41-521 limits assumed): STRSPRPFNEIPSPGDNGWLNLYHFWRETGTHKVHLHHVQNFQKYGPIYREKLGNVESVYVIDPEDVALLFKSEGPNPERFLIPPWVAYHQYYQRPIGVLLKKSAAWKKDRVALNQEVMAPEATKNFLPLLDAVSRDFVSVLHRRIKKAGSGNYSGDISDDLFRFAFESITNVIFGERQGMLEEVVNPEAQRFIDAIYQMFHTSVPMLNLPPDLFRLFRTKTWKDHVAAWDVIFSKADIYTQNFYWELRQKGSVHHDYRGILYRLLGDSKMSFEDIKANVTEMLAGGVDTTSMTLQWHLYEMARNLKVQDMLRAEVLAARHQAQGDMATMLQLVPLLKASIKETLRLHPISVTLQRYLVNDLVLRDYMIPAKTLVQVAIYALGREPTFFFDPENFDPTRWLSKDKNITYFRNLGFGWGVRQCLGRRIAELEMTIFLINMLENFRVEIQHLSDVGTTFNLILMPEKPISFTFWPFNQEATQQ
Experimental: Ligand binding constants were determined from the low-to high-spin (hypsochromic) spectral transition that occurs at the P450 heme as substrate entering the active site replaces water as the sixth axial heme ligand. […] As a result, we subsequently measured koff values of the P450-sterol complexes, which were consistent with the low Kd values observed (see below). Binding titrations were repeated in the presence of Adx (1 M equivalent, Fig. 6), although no significant effect was observed, even when Adx was added in excess (10-fold with cholesterol as the substrate, data not shown).
Spectra were recorded using either an OLIS-Cary 14 or OLIS-Aminco DW2a instrument (On-Line Instrument Systems) in the split-beam mode. The OLIS-Cary 14 instrument was used in the P450 11A1 titrations with a 10-cm cell (Starna Cells, catalog no. 34-Q-100, volume 25 ml).
Kd values were determined by difference spectroscopy as previously reported ([33], [43]) but with some modifications. Briefly, a long-path quartz cuvette (10 cm, 25 ml) containing P450 11A1 (0.1 μM, in 100 mM potassium phosphate buffer (pH 7.4)) was prepared and a baseline was recorded in an OLIS-Cary 14 spectrophotometer. Where indicated, the redox partner Adx was added in equimolar concentration (0.1 μM) to P450. Sterol solutions (in 45% HPCD, w/v) were added to the cuvette, the contents of the cuvette were inverted to mix, and a spectrum was recorded (350–500 nm) after each addition. The total volume added to each cuvette was kept ≤2% (v/v, 0.25 ml) in the assay. The maximum absorbance difference (usually ΔA390−A418) was plotted against the total sterol concentration, and the data were fit to a quadratic equation in GraphPad Prism software (GraphPad, https://www.graphpad.com) to estimate the dissociation constant (Kd). A quadratic equation was used to correct the ligand concentration for the enzyme-bound concentration (used as Y=B+A/2∗1/E∗((Kd+E+X)−(Kd+E+X)^2−(4∗E∗X)) (or Y = B + (A/2)∗(1/E)∗((Kd + E + X)-sqrt((Kd + E + X)∧2 -(4∗E∗X)) in Prism software), where E = enzyme concentration, Kd = dissociation constant, and X = […]).

[2] = molecular target: T2, human P450 11A1 (Homo sapiens, UniProt P05108); test: Effect of Tween 20 and lipids on P450 11A1 catalytic activity (cholesterol to pregnenolone); conditions: for effect on P450 11A1 catalytic activity: 50 μM cholesterol, 0.25 μM P450 11A1, lipids 30 μM phospholipid
T2 sequence (P05108 41-521 limits assumed): T1 sequence (P05108 41-521 limits assumed)
T2 sequence (P00257 59-186 partner): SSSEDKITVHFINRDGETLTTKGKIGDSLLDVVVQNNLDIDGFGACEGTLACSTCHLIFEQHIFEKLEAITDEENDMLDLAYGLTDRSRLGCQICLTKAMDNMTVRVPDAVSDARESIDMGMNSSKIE
Experimental: The substrate cholesterol and its 22R-OH and 20R,22R-(OH)2 products were delivered in 2-hydroxypropyl-β-cyclodextrin (HPCD) ([36]) in assays, circumventing the need to use any detergents or organic solvents.
Reactions were run in triplicate and the conversion of cholesterol to pregnenolone was calculated and plotted (nmol pregnenolone formed min^−1 (nmol P450)^−1). (Note: These assays were done with P450 11A1 purified in the absence of Tween 20.). AdR, adrenodoxin reductase; Adx, adrenodoxin; P450, cytochrome P450.
Reactions were run in triplicate and the conversion of cholesterol to pregnenolone was calculated and plotted (nmol pregnenolone formed min^−1 (nmol P450)^−1). AdR, adrenodoxin reductase; Adx, adrenodoxin; P450, cytochrome P450.
Sterol dilutions were performed in HPCD to ensure that the HPCD composition was equal throughout all incubations (final 4.5% w/v). The reaction mixture was split between vials (425 μl in each), and reactions were preincubated (37 °C, 5 min) prior to initiation (75 μl) with an NADPH-generating system (0.5 mM NADP^+, 10 mM glucose 6-phosphate, and 2 μg ml^−1 glucose 6-phosphate dehydrogenase) ([61]). Reactions (5 min) were terminated by extraction into CH2Cl2 (2 ml) and transferred to an ice bath. After the experiment was complete, the quenched reactions were subjected to centrifugation (10^3g, 5 min, 23 °C) to separate layers, the organic (bottom) layer of each sample was removed (1.6 ml) to fresh glass vials, and the samples were brought to dryness under a stream of nitrogen.

[3] = molecular target: T3, P450 11A1 (CYP11A1) (Homo sapiens, UniProt P05108); test: Kinetic isotope effect assay, disappearance of d0- and d3-cholesterol under single-turnover conditions; format: biochemical; conditions: human, pH 7.4; 5 μM P450, 5 μM sterol, low Adx single-turnover; read-out: sterol half-life (t1/2) (converted)
T3 construct: M A S T R S P R P F N E I P S P G D N; Met-Ala (N-terminal start residues in place of the transit peptide and Ile40) (N); made in house; host or cells: E. coli (P450 11A1 in C41(DE3); Adx and AdR in E. coli)
T3 sequence (P05108 41-521 limits assumed): T1 sequence (P05108 41-521 limits assumed)
T3 sequence (P00257 59-186 partner): T2 sequence (P00257 59-186 partner)
Experimental: (§1) P450 11A1 incubations were performed under (low Adx) single-turnover conditions (5 μM P450, 5 μM cholesterol; see Experimental procedures) with d0- (authentic, unlabeled) and d3-cholesterol, and the disappearance of each was monitored by LC-atmospheric pressure chemical ionization-MS (m/z 369.3516 and 372.3705, respectively). In theory, if C-H bond breaking were rate-limiting in the initial hydroxylation then the rate of d3-cholesterol consumption would be slower relative to the d0 compound due to the increased strength of a C-D bond.
The kinetic isotope experiment was designed similarly to the benchtop experiment described above, but with some modifications. P450 11A1 (5 μM) was reconstituted with the redox partners AdR (10 μM) and Adx (5 μM) on ice (10 min) prior to dilution in potassium Hepes (50 mM, pH 7.4) and H2O and addition of d3-cholesterol substrate (5 μM). […]
Samples (held at 4 °C) were injected (10 μl) using a Waters Acquity UPLC system on a Acquity BEH octadecylsilane (C18) 2.1 mm × 50 mm (1.7 μm) UPLC column (held at 25 °C) with a flow rate of 0.5 ml min^−1 using an isocratic mobile phase of CH3CN (only). The column eluate was subjected to atmospheric pressure chemical ionization and analyzed using a Thermo Fisher Scientific LTQ XL Orbitrap mass spectrometer instrument operating in positive mode, scanning from m/z 100 to 500, with a resolution setting of 120,000. […]

[4] = molecular target: T2, human P450 11A1; test: as above; format: biochemical; set-up: M A S T R S P R P F N E I P S P G D N; Met-Ala (N-terminal start residues in place of the transit peptide and Ile40) (N); made in house; host or cells: E. coli (P450 11A1 in C41(DE3); Adx and AdR in E. coli); conditions: for kinetic isotope effect: C-22 hydroxylation, single-turnover
Experimental: as §1
The kinetic isotope experiment was designed similarly to the benchtop experiment described above, but with some modifications. P450 11A1 (5 μM) was reconstituted with the redox partners AdR (10 μM) and Adx (5 μM) on ice (10 min) prior to dilution in potassium Hepes (50 mM, pH 7.4) and H2O and addition of d3-cholesterol substrate (5 μM). The mixture was preincubated (5 min) prior to initiation with NADPH (2.5 mM, from 25 mM in potassium Hepes (50 mM, pH 7.4)) thus bringing all components to their desired final concentrations. After completing the desired incubation time, an aliquot (500 μl) was removed from the incubation and added to vials containing CH2Cl2 (5 ml) and the vials were mixed with a vortex device and placed on ice. The quenched reactions were centrifuged (10^3g, 5 min, 23 °C) to separate layers, and the organic (bottom) layers were removed (4 ml) and transferred to fresh glass vials. The extraction process was repeated and the two extracts (2 × 4 ml) from each sample were combined to maximize product recovery. Samples (8 ml) were brought to dryness under a stream of nitrogen, and the dried residues were dissolved in CH3OH (25 μl) and transferred to autosampler vials for analysis.
Samples (held at 4 °C) were injected (10 μl) using a Waters Acquity UPLC system on a Acquity BEH octadecylsilane (C18) 2.1 mm × 50 mm (1.7 μm) UPLC column (held at 25 °C) with a flow rate of 0.5 ml min^−1 using an isocratic mobile phase of CH3CN (only). The column eluate was subjected to atmospheric pressure chemical ionization and analyzed using a Thermo Fisher Scientific LTQ XL Orbitrap mass spectrometer instrument operating in positive mode, scanning from m/z 100 to 500, with a resolution setting of 120,000. Data were processed using Xcalibur QualBrowser (Thermo Fisher Scientific) software (version 2.0.7; https://www.thermofishcer.com/order/catalog/product/OPTON).

[5] = molecular target: T1, human P450 11A1; test: Stopped-flow ketoconazole trap, koff and binding rate measurements
Experimental: Interaction of the azole nitrogen atom with the P450 heme produces a bathochromic (“type II”) spectral shift (to ∼430 nm)—an inverse effect of the binding of substrate.
Measurement of kon rate(s) was not performed because the sterols are delivered in a solution of HPCD, from which the dissociation rate is not known.
Determinations of koff rates were performed as previously described ([33]).

Compound: CCCCCCCCCCCC(=O)OC[C@H](COP(=O)([O-])OCC[N+](C)(C)C)OC(=O)CCCCCCCCCCC [L-α-dilauroyl-sn-glycero-3-phosphocholine]
- effect on P450 11A1 catalytic activity [2]: not enhanced

Compound: CCCCCCCC/C=C\CCCCCCCC(=O)OC[C@H](COP(=O)([O-])OCC[N+](C)(C)C)OC(=O)CCCCCCC/C=C\CCCCCCCC [L-α-dioleyl-sn-glycero-3-phosphocholine]
- effect on P450 11A1 catalytic activity [2]: not enhanced

Compound: Tween 20
- concentrations found inhibitory ([2]; 0.25 μM P450 11A1, 50 μM cholesterol, 40-fold Adx): > 0.008 % (w/v)
- effect on P450 11A1 catalytic activity [2]: inhibitory; also recorded: inhibited; also recorded: strongly inhibitory; also recorded: inhibits the enzyme

Second part, the compound after the results:

- spectral shift with P450 11A1 [1]: did not induce a spectral shift
Compound: CC(C)CCC=O [4-methylpentanal]

- half-life at 5 μM [3]: 22 s
- rate of disappearance ([4]; 5 μM P450, 5 μM sterol, exponential decay fit): 0.032 s⁻¹
- kinetic isotope effect [4]: did not observe a kinetic isotope effect
- kinetic isotope effect ([4]; listed as d3-Cholesterol): no kinetic deuterium isotope effect
Compound: [2H]C([2H])(CCC(C)C)[C@@]([2H])(C)[C@H]1CC[C@H]2[C@@H]3CC=C4C[C@@H](O)CC[C@]4(C)[C@H]3CC[C@@]21C [d3-cholesterol, (20R)-Cholest-5-ene-20,22,22-d3-3β-ol]

- observed rate of ketoconazole binding (ΔA430) ([5]; 20 μM ketoconazole mixed with 2 μM P450 11A1, equal volumes, 23 °C): 5.3 s⁻¹
- kon ([5]; read-out: fast phase of biexponential fit (ketoconazole kon), cholesterol data, trap experiment with P450-cholesterol complex): 710000 M⁻¹ s⁻¹
- kon ([5]; read-out: fast phase of biexponential fit (ketoconazole kon), pregnenolone data, trap experiment with P450-pregnenolone complex): 790000 M⁻¹ s⁻¹
- kon ([5]; read-out: rate of ketoconazole binding to unliganded P450 11A1 (kon), stopped-flow, unliganded enzyme): ≥ 500000 M⁻¹ s⁻¹
Compound: CC(=O)N1CCN(c2ccc(OCC3COC(Cn4ccnc4)(c4ccc(Cl)cc4Cl)O3)cc2)CC1 (centres unmarked) [ketoconazole, reference compound]

- effect on P450 11A1 catalytic activity [2]: inhibit
Compound: cardiolipin
